Source: the supplement of paper PMC10307832

Legend:
Assay in all cases: relative viability (nuclei count vs DMSO), 5 days (fraction); higher = more cells survive
[1] = compound: O=C(/C=C/c1ccccc1)NC(NC(=S)Nc1cccc2cccnc12)C(Cl)(Cl)Cl [Salubrinal] + CCNC(=O)c1noc(-c2cc(C(C)C)c(O)cc2O)c1-c1ccc(CN2CCOCC2)cc1 [Luminespib] (partner 0.01 µM)
How it was run: (§1)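 Medians of duplicate plates are given as relative viability. That measure is the nuclei count in treated wells divided by the count in vehicle wells. Counts were taken on 4× images of lung cancer cell lines in 1536-well plates, 5 days after pin-tool dosing the day after seeding with one drug alone or a fixed anchor-drug dose plus five library-drug doses (not always all listed) in √10 steps.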

[2] = compound: O=C(/C=C/c1ccccc1)NC(NC(=S)Nc1cccc2cccnc12)C(Cl)(Cl)Cl [Salubrinal] + COc1cc2c(Oc3ccc(NC(=O)C4(C(=O)Nc5ccc(F)cc5)CC4)cc3F)ccnc2cc1OCCCN1CCOCC1 [Foretinib] (partner 0.25 µM)
How it was run: as §1

[3] = compound: O=C(/C=C/c1ccccc1)NC(NC(=S)Nc1cccc2cccnc12)C(Cl)(Cl)Cl [Salubrinal] + CS(=O)(=O)N1CCN(Cc2cc3nc(-c4cccc5[nH]ncc45)nc(N4CCOCC4)c3s2)CC1 [Pictilisib] (partner 1 µM)
How it was run: as §1

[4] = compound: O=C(/C=C/c1ccccc1)NC(NC(=S)Nc1cccc2cccnc12)C(Cl)(Cl)Cl [Salubrinal] + C[C@]1(O)C[C@@H](c2nc(-c3ccc4ccc(-c5ccccc5)nc4c3)c3c(N)nccn32)C1 [Linsitinib] (partner 1 µM)
How it was run: as §1

Cell Line: UMC-11
- relative viability ([1]; first compound 0.08 µM): 1.06
- relative viability ([1]; first compound 0.253 µM): 0.835
- relative viability ([1]; first compound 0.8 µM): 1.14
- relative viability ([1]; first compound 2.53 µM): 1.05
- relative viability ([1]; first compound 8 µM): 1.14
- relative viability ([2]; first compound 0.08 µM): 1.17
- relative viability ([2]; first compound 0.253 µM): 1
- relative viability ([2]; first compound 0.8 µM): 1.13
- relative viability ([2]; first compound 2.53 µM): 1.1
- relative viability ([2]; first compound 8 µM): 1.21
- relative viability ([3]; first compound 0.08 µM): 0.655
- relative viability ([3]; first compound 0.253 µM): 0.688
- relative viability ([3]; first compound 0.8 µM): 1.02
- relative viability ([3]; first compound 2.53 µM): 0.933
- relative viability ([3]; first compound 8 µM): 0.882
- relative viability ([4]; first compound 0.08 µM): 1.25
- relative viability ([4]; first compound 0.253 µM): 0.807
- relative viability ([4]; first compound 0.8 µM): 1.21
- relative viability ([4]; first compound 2.53 µM): 0.998
- relative viability ([4]; first compound 8 µM): 0.955
